The values that follow come from PubChem BioAssay AID179 (DTP/NCI, 2004).

Several values for one entry are separate records, joined by “and”; a condition that tells them apart may be missing. Equal values may be shown once. Activity calls are given as the source filed them.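 Rule for the calls: active = compounds giving half or more protection of infected cells from virus-caused growth loss, again on retest; inactive = the rest.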

For this test, the system named is CEM cells HIV-1 protection, formazan growth assay. Kind of test: NCI AIDS Antiviral Assay. The following applies: for IC50: measured here: growth of uninfected CEM cells. The essentials:
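Protection of CEM cells against HIV-1 was scored from cell growth (soluble formazan) across five concentrations, with parallel uninfected cells. Lack of protection may reflect toxicity.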

Take `Nc1ccc(/C=C/c2ccc(N=Nc3ccc(/C=C/c4ccc(N=Nc5ccc(/C=C/c6ccc(N=Nc7ccc(/C=C/c8ccc(N)cc8S(=O)(=O)O)c(S(=O)(=O)O)c7)cc6S(=O)(=O)O)c(S(=O)(=O)O)c5)cc4S(=O)(=O)O)c(S(=O)(=O)O)c3)cc2S(=O)(=O)O)c(S(=O)(=O)O)c1`: the EC50 (usually the concentration at which the effect is half-maximal) is 1.78 µM and the IC50 (as a rule, the concentration that gives 50% inhibition) was determined as 186 µM.
On to `CC12CCC(C)(O1)C1C(=O)N(c3nccs3)C(=O)C12` (configuration not stated), for which the EC50 is above 891 µM and the IC50 was above 891 µM.
`O=c1c2cc([N+](=O)[O-])ccc2n2n1Cc1ccccc1CC2`: the EC50 was above 200 µM and the IC50 was above 200 µM.
For `C=C1CC(c2ccc(O)c(OC)c2)Oc2c(OC)cccc21` (configuration not stated), the EC50 is above 316 µM and the IC50 was 32.4 µM.
For `COC(=O)c1cc(C(=Cc2c(F)c(F)c(F)c(F)c2F)c2cc(Cl)c(OC)c(C(=O)OC)c2)cc(Cl)c1OC`, in that order: above 17.4 µM and above 17.4 µM.
For `CC(CCC=C(c1cc(Cl)c(O)c(C(=O)O)c1)c1cc(Cl)c(O)c(C(=O)O)c1)C1CCC2C3CC[C@@H]4CCCC[C@]4(C)C3CC[C@]12C` (some centres not stated), in that order: above 7.24 µM and above 7.24 µM.
For `COc1ccc2[nH]c3c([N+](=O)[O-])ccc(Cl)c3c(=O)c2c1`, the outcome was inactive.
Regarding `Cc1c(Cl)ccc2c1NC(=O)C2(O)CC(=O)c1cccc2ccccc12` (configuration not stated), the EC50 was above 97.7 µM and the IC50 was above 97.7 µM.
As for `COC(=O)C(CCCN1C(=O)c2ccccc2C1=O)C(=O)OC`, the outcome was inactive.
As for `N#Cc1ccc(NC(=O)C(CC(=O)OCc2ccccc2)NC(=O)OCc2ccccc2)cc1` (configuration not stated), the EC50 was above 200 µM and the IC50 was above 200 µM.
Turning to `Cc1ccc(/C=N/NS(=O)(=O)c2ccccc2)cc1`, the outcome was inactive.
On the same count and under the same terms, the entry for `C[n+]1c2ccccc2c(NC(CCC(N)=O)C(=O)O)c2ccccc21` (configuration not stated) is “inactive”.
Regarding `N=c1c2c(ncn1N)CCN(Cc1ccccc1)C2`, the EC50 was above 200 µM and the IC50 is 30.9 µM.
In the case of `COc1ccc(C2CC(=O)c3c(O)cc(OC4OC(COC5OC(C)C(O)C(O)C5O)C(O)C(O)C4O)cc3O2)cc1O` (configuration not stated), the 50% effective concentration (EC50) is 138 µM and the IC50 worked out at 191 µM.
Regarding `Nc1nccc(CCc2ccccc2)n1`, the EC50 was above 36.3 µM and the IC50 was above 36.3 µM.
As to `CN(C)CCCC12OC(c3ccccc31)C(O)c1ccccc12` (configuration not stated), the EC50 was above 200 µM and the IC50 is above 200 µM.
With `CCCC[N+](CCCC)=c1cc(-c2ccc(Cl)cc2)ss1`, the EC50 was above 20 µM and the IC50 came out at 0.708 µM.
As to `O=[N+]([O-])c1cc(S(=O)(=O)c2ccc(Cl)c([N+](=O)[O-])c2)ccc1Cl`, the EC50 was above 200 µM and the IC50 was determined as 2.34 µM.
For the compound `CO[C@H]1C[C@@H]2CC[C@@H](C)[C@@](O)(O2)C(=O)C(=O)N2CCCC[C@H]2C(=O)O[C@H]([C@H](C)C[C@@H]2CC[C@@H](O)[C@H](OC)C2)CC(=O)[C@H](C)C=C(C)[C@@H](O)[C@@H](OC)C(=O)[C@H](C)C[C@H](C)/C=C/C=C/C=C1C`, the EC50 is above 14.1 µM and the IC50 came to 7.59 µM.
`Clc1ccc2c(c1)[nH]c1c2nc2sccn21`: the outcome was inactive.
In the case of `Cc1cn([C@@H]2C[C@@H]2CO)c(=O)[nH]c1=O`, the result was inactive.
Take `C/C(=N\NC(=S)NCCNC(=S)N/N=C(\C)c1ccccn1)c1ccccn1`: the EC50 was above 200 µM and the IC50 stood at 3.39 µM.
As for `C=CCOC(=O)CC[N+]1=CCC(c2ccccc2)(c2ccccc2)O1`, the EC50 was above 29.5 µM and the IC50 was above 29.5 µM.
`CCN(CC)CCC(=O)NC1c2ccccc2Oc2c(C)cccc21` (configuration not stated): the EC50 is above 275 µM and the IC50 amounted to 58.9 µM.
As for `O=C(O)C(C(=O)O)P(=S)(S)c1ccccc1` (configuration not stated), the EC50 is above 4570 µM and the half-inhibitory concentration (IC50) was above 4570 µM.
As for `C=CCNC(=O)NC1=CSC2=NC(=O)C3(NN12)c1ccccc1-c1ccccc13`, the EC50 is above 200 µM and the IC50 worked out at 58.9 µM.
Take `COC1OC2COc3ccccc3OC2C(NC#N)C1OC` (configuration not stated): the EC50 is above 145 µM and the half-maximal inhibitory concentration (IC50) was 28.8 µM.
For `O=[N+]([O-])c1cccc(C2N3CCCCC3[C@@H]3c4[nH]c5ccccc5c4CCN23)c1` (some centres not stated), the EC50 was above 18.6 µM and the IC50 was above 18.6 µM.
In the case of `CCOC(=O)/C(SC#N)=C(/N)N1CCCC1`, the EC50 is above 200 µM and the IC50 was above 200 µM.
As to `Cc1nn(C)c(=O)[nH]c1=O`, the EC50 was above 1780 µM and the IC50 was above 1780 µM.
For the compound `O=c1ccn(CC2OCC(CO)O2)c(=O)[nH]1` (configuration not stated), the EC50 is above 2750 µM; the half-inhibitory concentration (IC50) is 1150 µM and > 2750 µM.
`CC(C)=CC(=O)N(C)C1C2CN3CCC(O2)C13` (configuration not stated): the result was inactive.
For `COc1cc(COC(=O)N(CC(=O)O)c2ccccc2)c([N+](=O)[O-])cc1OC`, the EC50 was above 646 µM and the IC50 worked out at 295 µM.
For `O=C(O)/C=N\Nc1nc2ccccc2[nH]1`, in that order: above 200 µM and above 200 µM.
The like results for `CCOc1ccccc1NC(=O)CC(C(=O)OC)C(=O)C(=O)OC` (configuration not stated) were, in that order, above 537 µM and above 537 µM.
On to `CCCNC1(C(N)=O)CCN(Cc2ccccc2)CC1`, for which the EC50 is above 200 µM and the IC50 is above 200 µM.
For the compound `CCN1C[C@]2(COC(=O)c3ccccc3N3C(=O)CC(C)C3=O)CCC(OC)C34[C@@H]5C[C@@H]6C(OC)[C@@H]5[C@](O)(C[C@@H]6OC)[C@@](O)([C@H]13)[C@@H](OC)[C@@H]42` (some centres not stated), the outcome was inactive.
Consider `CC1N=C(c2ccccn2)C(c2ccccn2)=NC1c1ccccc1` (configuration not stated), for which the EC50 was above 79.4 µM and the half-inhibitory concentration (IC50) is above 79.4 µM.
Turning to `CCOc1ccccc1/C=C1\NC(=O)NC1=O`, the EC50 is above 200 µM and the IC50 was above 200 µM.
On to `Cc1c(C2CCSc3ccccc3N2)sc2ccccc12` (configuration not stated), for which the EC50 was above 200 µM and the IC50 is 148 µM.
Consider `COC(=O)CCCC=C(c1cc(C)c(OC)c(C(=O)OC)c1)c1cc(C)c(OC)c(C(=O)OC)c1`, for which the EC50 was 2.4 µM and the IC50 was 89.1 µM.
Turning to `CP1(=S)CC[C@H]2C3=C(CC[C@@H]21)CC(=O)CC3` (some centres not stated), the outcome was inactive.
Take `Cc1ccc(NC(Nc2ccc(C)cc2C)=C(C(Cl)=C(Cl)Cl)[N+](=O)[O-])c(C)c1`: the EC50 was above 200 µM and the IC50 worked out at 7.94 µM.
As for `C=C(C)C1CC=C(C)C(O)([C@@]2(O)C[C@H](C(=C)C)CC=C2C)C1` (some centres not stated), the result was inactive.
`CC(=O)NC1=C(C)C(=O)c2c(nc3n2CCC3OC(=O)c2ccccc2)C1=N` (configuration not stated): the EC50 is above 200 µM and the IC50 was determined as 0.912 µM.
The like results for `O=c1cc(Cl)c(Cl)nn1-c1ccccc1` were, in that order, above 56.2 µM and 9.77 µM.
Regarding `O=[N+]([O-])c1cc(Br)cc2cc(Cl)cnc12`, the outcome was inactive.
On the same count and under the same terms, for `CC1=C(/C=C/C(C)=C/C=C/C(C)=C/C(=O)O)C(C)(C)CCC1` the value was “inactive”.
Regarding `C/C(C=C(C#N)C#N)=C\c1ccc([N+](=O)[O-])cc1`, the EC50 was above 11.5 µM and the IC50 was above 11.5 µM.
Turning to `S=C1N=C(Cl)/C(=C\c2ccccc2)N1`, the EC50 was above 200 µM and the IC50 was above 200 µM.
On to `NC12CC3CC(C1)CC(Cl)(C3)C2`, for which the EC50 is above 1120 µM and the IC50 was above 1120 µM.
Consider `CC(O)CSP(=S)(Oc1ccccc1)Oc1ccccc1` (configuration not stated), for which the EC50 was above 39.8 µM and the IC50 is above 39.8 µM.
Regarding `O=C1NC2(O)C(=O)c3ccccc3C2(O)N1` (configuration not stated), the EC50 is above 1120 µM and the IC50 is above 1120 µM.
`O=C1C2c3[nH]c4ccccc4c3[C@@H]3CCCCCCCCCCC3C2C(=O)N1c1ccccc1` (some centres not stated): the outcome was inactive.
As for `COc1cccc(-n2c3nc(=O)n(C)c(=O)c-3nc3ccccc32)c1`, the result was inactive.
`CC1=Cc2cc3[n-]c(cc4nc(cc5[n-]c(cc1n2)cc5C)C(C)=C4CCC(=O)O)c(CCC(=O)O)c3C.[Pd+2]`: the EC50 was above 11.7 µM and the IC50 worked out at 1.02 µM.
Turning to `N#Cc1c(N)c2c(c(-c3ccccc3)c1-c1ccccc1)C(=O)N(NC(=O)c1ccccc1)C2=O`, the EC50 was 75.9 µM and the IC50 was found to be 102 µM.
In the case of `O=C(CCc1nc(=S)[nH][nH]1)Nc1cccc(C(F)(F)F)c1`, the EC50 was above 22.9 µM and the IC50 is above 22.9 µM.
As to `Cc1cc(C#N)c[n+](C)c1`, the EC50 was above 200 µM and the IC50 is above 200 µM.
For `O=C1CCn2c([nH]c3cccc4cccc2c43)=N1`, the EC50 is above 151 µM and the IC50 worked out at 148 µM.
For `COc1cccc(N2C(=O)C3CC(CC(C)(C)C)c4c([nH]c5ccccc45)C3C2=O)c1` (configuration not stated), the EC50 is above 200 µM and the IC50 was 42.7 µM.
Turning to `COC(=O)C1C(=O)C(C(=O)OC)C2C(C(=O)OC)C(=O)C(C(=O)OC)C12` (configuration not stated), the 50% effective concentration (EC50) is 166 µM and the IC50 was found to be 355 µM.
In the case of `C=CCNc1nc(C#N)c(N)s1`, the EC50 was above 200 µM and the IC50 is above 200 µM.
As to `CC1(C2(C)OC(=O)c3ccccc32)OC(=O)c2ccccc21` (configuration not stated), the EC50 was above 200 µM and the IC50 was above 200 µM.
With `CCCc1nn2c(-c3ccccc3)nnc2o1`, the EC50 is above 200 µM and the IC50 was 63.1 µM.
Turning to `CN1C=c2c3c(ccc2=C2C=CC4C=C5OCOC5=CC4=C21)OCO3` (configuration not stated), the EC50 is above 20 µM and the IC50 was 0.759 µM.
`C=C1CN(S(=O)(=O)c2ccc([N+](=O)[O-])cc2)CC(=C)CN(S(=O)(=O)c2ccc([N+](=O)[O-])cc2)C1`: the EC50 is above 200 µM and the IC50 was above 200 µM.
As to `c1ccc(C2=NOC(c3ccccc3)N2C23CC4CC(CC(C4)C2)C3)cc1` (configuration not stated), the EC50 was above 200 µM and the IC50 is above 200 µM.
`CC1(C)C(=O)/C=C\C(=O)C(C)(C)C(=O)/C=C\C(=O)C(C)(C)C(=O)/C=C\C(=O)C(C)(C)C(=O)/C=C\C1=O`: the outcome was inactive.
Turning to `COc1cccc(C2C3=C(COC3=O)Oc3cc4c(cc32)OCO4)c1` (configuration not stated), the EC50 is above 2 µM and the IC50 came out at 0.0851 µM.
For `C[N+](C)(Cc1ccco1)c1ccccc1`, in that order: above 3.16 µM and above 3.16 µM.
